# Measurements as given in the NIST ThermoML archive (doi:10.1016/j.tca.2010.05.016).
# ± gives the expanded uncertainty stated by the source.
# Assay: mn = molality of the nth substance listed, in mol/kg
# Details: 101 kPa, Liquid; for speed of sound: Vibrating Tube; for mass density: Vibrating tube method
structure (smiles),measurement,setting,value
NCC(=O)NCC(=O)NCC(=O)O [glycylglycylglycine] + O,speed of sound,"288.15 K, m1 = 0.03587",1470.6 ± 3.3 m/s
same,speed of sound,"288.15 K, m1 = 0.04684",1471.6 ± 3.3 m/s
same,speed of sound,"288.15 K, m1 = 0.05855",1473 ± 3.3 m/s
same,speed of sound,"288.15 K, m1 = 0.06301",1473.4 ± 3.3 m/s
same,speed of sound,"288.15 K, m1 = 0.07743",1475 ± 3.3 m/s
same,speed of sound,"288.15 K, m1 = 0.09073",1476.5 ± 3.3 m/s
same,speed of sound,"288.15 K, m1 = 0.1016",1477.7 ± 3.3 m/s
same,mass density,"288.15 K, m1 = 0.03587",1001.94 ± 0.042 kg/m3
same,mass density,"288.15 K, m1 = 0.04684",1002.79 ± 0.042 kg/m3
same,mass density,"288.15 K, m1 = 0.05855",1003.69 ± 0.043 kg/m3
same,mass density,"288.15 K, m1 = 0.06301",1004.03 ± 0.043 kg/m3
same,mass density,"288.15 K, m1 = 0.07743",1005.13 ± 0.044 kg/m3
same,mass density,"288.15 K, m1 = 0.09073",1006.13 ± 0.046 kg/m3
same,mass density,"288.15 K, m1 = 0.1016",1006.95 ± 0.046 kg/m3
same,speed of sound,"293.15 K, m1 = 0.03587",1486.7 ± 3.3 m/s
same,speed of sound,"293.15 K, m1 = 0.04684",1487.8 ± 3.3 m/s
same,speed of sound,"293.15 K, m1 = 0.05855",1489 ± 3.3 m/s
same,speed of sound,"293.15 K, m1 = 0.06301",1489.4 ± 3.3 m/s
same,speed of sound,"293.15 K, m1 = 0.07743",1490.8 ± 3.3 m/s
same,speed of sound,"293.15 K, m1 = 0.09073",1492.6 ± 3.3 m/s
same,speed of sound,"293.15 K, m1 = 0.1016",1493.4 ± 3.3 m/s
same,mass density,"293.15 K, m1 = 0.03587",1001 ± 0.041 kg/m3
same,mass density,"293.15 K, m1 = 0.04684",1001.85 ± 0.042 kg/m3
same,mass density,"293.15 K, m1 = 0.05855",1002.74 ± 0.043 kg/m3
same,mass density,"293.15 K, m1 = 0.06301",1003.07 ± 0.043 kg/m3
same,mass density,"293.15 K, m1 = 0.07743",1004.16 ± 0.044 kg/m3
same,mass density,"293.15 K, m1 = 0.09073",1005.15 ± 0.045 kg/m3
same,mass density,"293.15 K, m1 = 0.1016",1005.96 ± 0.046 kg/m3
same,speed of sound,"298.15 K, m1 = 0.03587",1500.8 ± 3.3 m/s
same,speed of sound,"298.15 K, m1 = 0.04684",1501.8 ± 3.3 m/s
same,speed of sound,"298.15 K, m1 = 0.05855",1503 ± 3.3 m/s
same,speed of sound,"298.15 K, m1 = 0.06301",1503.4 ± 3.3 m/s
same,speed of sound,"298.15 K, m1 = 0.07743",1504.8 ± 3.3 m/s
same,speed of sound,"298.15 K, m1 = 0.09073",1506 ± 3.3 m/s
same,speed of sound,"298.15 K, m1 = 0.1016",1507.3 ± 3.3 m/s
same,mass density,"298.15 K, m1 = 0.03587",999.808 ± 0.041 kg/m3
same,mass density,"298.15 K, m1 = 0.04684",1000.64 ± 0.041 kg/m3
same,mass density,"298.15 K, m1 = 0.05855",1001.52 ± 0.042 kg/m3
same,mass density,"298.15 K, m1 = 0.06301",1001.86 ± 0.042 kg/m3
same,mass density,"298.15 K, m1 = 0.07743",1002.93 ± 0.044 kg/m3
same,mass density,"298.15 K, m1 = 0.09073",1003.92 ± 0.045 kg/m3
same,mass density,"298.15 K, m1 = 0.1016",1004.73 ± 0.045 kg/m3
same,speed of sound,"303.15 K, m1 = 0.03587",1512.9 ± 3.3 m/s
same,speed of sound,"303.15 K, m1 = 0.04684",1514 ± 3.3 m/s
same,speed of sound,"303.15 K, m1 = 0.05855",1515.1 ± 3.3 m/s
same,speed of sound,"303.15 K, m1 = 0.06301",1515.5 ± 3.3 m/s
same,speed of sound,"303.15 K, m1 = 0.07743",1516.8 ± 3.3 m/s
same,speed of sound,"303.15 K, m1 = 0.09073",1518.4 ± 3.3 m/s
same,speed of sound,"303.15 K, m1 = 0.1016",1519.3 ± 3.3 m/s
same,mass density,"303.15 K, m1 = 0.03587",998.381 ± 0.042 kg/m3
same,mass density,"303.15 K, m1 = 0.04684",999.208 ± 0.042 kg/m3
same,mass density,"303.15 K, m1 = 0.05855",1000.08 ± 0.042 kg/m3
same,mass density,"303.15 K, m1 = 0.06301",1000.41 ± 0.042 kg/m3
same,mass density,"303.15 K, m1 = 0.07743",1001.54 ± 0.043 kg/m3
same,mass density,"303.15 K, m1 = 0.09073",1002.46 ± 0.044 kg/m3
same,mass density,"303.15 K, m1 = 0.1016",1003.26 ± 0.045 kg/m3
same,speed of sound,"308.15 K, m1 = 0.03587",1523.3 ± 3.3 m/s
same,speed of sound,"308.15 K, m1 = 0.04684",1524.3 ± 3.3 m/s
same,speed of sound,"308.15 K, m1 = 0.05855",1525.4 ± 3.3 m/s
same,speed of sound,"308.15 K, m1 = 0.06301",1525.8 ± 3.3 m/s
same,speed of sound,"308.15 K, m1 = 0.07743",1527.3 ± 3.3 m/s
same,speed of sound,"308.15 K, m1 = 0.09073",1528.5 ± 3.3 m/s
same,speed of sound,"308.15 K, m1 = 0.1016",1529.5 ± 3.3 m/s
same,mass density,"308.15 K, m1 = 0.03587",996.783 ± 0.043 kg/m3
same,mass density,"308.15 K, m1 = 0.04684",997.565 ± 0.042 kg/m3
same,mass density,"308.15 K, m1 = 0.05855",998.435 ± 0.042 kg/m3
same,mass density,"308.15 K, m1 = 0.06301",998.76 ± 0.042 kg/m3
same,mass density,"308.15 K, m1 = 0.07743",999.825 ± 0.042 kg/m3
same,mass density,"308.15 K, m1 = 0.09073",1000.79 ± 0.043 kg/m3
same,mass density,"308.15 K, m1 = 0.1016",1001.58 ± 0.044 kg/m3
